Test results published in ChEMBL document CHEMBL1201861, “Genomics of Drug Sensitity in Cancer screening data, Wellcome Trust Sanger Institute”.
Values joined by “and” are separate entries in the source; they are usually repeats but may differ in a detail not shown here. Identical values can stand only once.

What was measured:
Experiment in all cases: cells
[1] = tested on: EGI-1; type: functional, cell-based, Homo sapiens;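 also: cell viability readout used to gauge growth inhibition of EGI-1 cells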
Description: SANGER: Inhibition of human EGI-1 cell growth in a cell viability assay.

[2] = tested on: no-10; type: functional, cell-based, Homo sapiens;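 also: growth inhibition of no-10 cells, read out with a cell viability assay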
Description: SANGER: Inhibition of human no-10 cell growth in a cell viability assay.

[3] = tested on: A-375; type: functional, cell-based, Homo sapiens;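 also: growth inhibition of A375 cells, read out with a cell viability assay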
Description: SANGER: Inhibition of human A375 cell growth in a cell viability assay.

[4] = tested on: SK-MES-1; type: functional, cell-based, Homo sapiens;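 also: growth inhibition of human SK-MES-1 cells, read out with a cell viability assay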
Description: SANGER: Inhibition of human SK-MES-1 cell growth in a cell viability assay.

[5] = tested on: 786-0; type: functional, cell-based, Homo sapiens
Description: SANGER: Inhibition of human 786-0 cell growth in a cell viability assay.

[6] = tested on: LAMA-84; type: functional, cell-based; details: Homo sapiens;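 also: growth inhibition of LAMA-84 cells, read out with a cell viability assay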
Description: SANGER: Inhibition of human LAMA-84 cell growth in a cell viability assay.

[7] = tested on: MZ2-MEL; type: functional, cell-based, Homo sapiens;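 also: growth inhibition of MZ2-MEL cells read out with a cell viability assay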
Description: SANGER: Inhibition of human MZ2-MEL cell growth in a cell viability assay.

[8] = tested on: NCI-H358; type: functional, cell-based, Homo sapiens;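 also: growth inhibition of NCI-H358 human cells, read out with a cell viability assay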
Description: SANGER: Inhibition of human NCI-H358 cell growth in a cell viability assay.

[9] = tested on: MHH-NB-11; type: functional, cell-based, Homo sapiens;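 also: growth inhibition of human MHH-NB-11 cells, read out by a cell viability assay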
Description: SANGER: Inhibition of human MHH-NB-11 cell growth in a cell viability assay.

[10] = tested on: LOX IMVI; type: functional, cell-based; details: Homo sapiens
Description: SANGER: Inhibition of human LOXIMVI cell growth in a cell viability assay.

[11] = tested on: NCI-H1993; type: functional, cell-based, Homo sapiens;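 also: growth inhibition of the cancer cell line, assessed with a cell viability assay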
Description: SANGER: Inhibition of human NCI-H1993 cell growth in a cell viability assay.

[12] = tested on: CAL-27; type: functional, cell-based, Homo sapiens;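 also: Viability-based readout, IC50 reflecting inhibition of CAL-27 cell growth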
Description: SANGER: Inhibition of human CAL-27 cell growth in a cell viability assay.

[13] = tested on: TE-8; type: functional, cell-based, Homo sapiens;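 also: growth inhibition of TE-8 cells, measured with a cell viability readout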
Description: SANGER: Inhibition of human TE-8 cell growth in a cell viability assay.

[14] = tested on: GOTO; type: functional, cell-based, Homo sapiens;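 also: growth inhibition of GOTO cells, read out by a cell viability assay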
Description: SANGER: Inhibition of human GOTO cell growth in a cell viability assay.

[15] = tested on: TE-11; type: functional, cell-based, Homo sapiens;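 also: growth inhibition of human TE-11 cells, read out by a cell viability assay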
Description: SANGER: Inhibition of human TE-11 cell growth in a cell viability assay.

[16] = tested on: SW 962; type: functional, cell-based, Homo sapiens;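 also: growth inhibition of human SW962 cells, read out by a cell viability assay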
Description: SANGER: Inhibition of human SW962 cell growth in a cell viability assay.

[17] = tested on: SW1783; type: functional, cell-based; details: Homo sapiens;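 also: cell growth inhibition measured with a viability assay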
Description: SANGER: Inhibition of human SW1783 cell growth in a cell viability assay.

[18] = tested on: TE-1; type: functional, cell-based, Homo sapiens;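 also: growth inhibition of the human TE-1 cell line, read out with a cell viability assay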
Description: SANGER: Inhibition of human TE-1 cell growth in a cell viability assay.

[19] = tested on: UMUC3; type: functional, cell-based, Homo sapiens;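 also: growth inhibition of human UM-UC-3 cells, read out with a cell viability assay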
Description: SANGER: Inhibition of human UM-UC-3 cell growth in a cell viability assay.

[20] = tested on: COLO-829; type: functional, cell-based, Homo sapiens
Description: SANGER: Inhibition of human COLO-829 cell growth in a cell viability assay.

[21] = tested on: Calu-3; type: functional, cell-based, Homo sapiens;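 also: growth inhibition of human Calu-3 cells, determined with a cell viability assay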
Description: SANGER: Inhibition of human Calu-3 cell growth in a cell viability assay.

[22] = tested on: BFTC-905; type: functional, cell-based, Homo sapiens
Description: SANGER: Inhibition of human BFTC-905 cell growth in a cell viability assay.

[23] = tested on: T98G; type: functional, cell-based, Homo sapiens;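 also: growth inhibition of T98G cells, read out by a cell viability assay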
Description: SANGER: Inhibition of human T98G cell growth in a cell viability assay.

[24] = tested on: HH; type: functional, cell-based; details: Homo sapiens
Description: SANGER: Inhibition of human HH cell growth in a cell viability assay.

[25] = tested on: D-247MG; type: functional, cell-based, Homo sapiens
Description: SANGER: Inhibition of human D-247MG cell growth in a cell viability assay.

[26] = tested on: AGS; type: functional, cell-based, Homo sapiens;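 also: growth inhibition of AGS cells, determined with a cell viability assay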
Description: SANGER: Inhibition of human AGS cell growth in a cell viability assay.

[27] = tested on: NCI-H1693; type: functional, cell-based, Homo sapiens;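 also: growth inhibition of the human cell line, read out with a cell viability assay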
Description: SANGER: Inhibition of human NCI-H1693 cell growth in a cell viability assay.

[28] = tested on: A704; type: functional, cell-based, Homo sapiens;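 also: growth inhibition of human A704 cells, read out with a cell viability assay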
Description: SANGER: Inhibition of human A704 cell growth in a cell viability assay.

[29] = tested on: BB65-RCC; type: functional, cell-based, Homo sapiens;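 also: growth inhibition of the cell line, measured with a cell viability assay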
Description: SANGER: Inhibition of human BB65-RCC cell growth in a cell viability assay.

[30] = tested on: SH-4; type: functional, cell-based, Homo sapiens;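 also: growth inhibition of SH-4 cells, read out with a cell viability assay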
Description: SANGER: Inhibition of human SH-4 cell growth in a cell viability assay.

[31] = tested on: EOL1; type: functional, cell-based; details: Homo sapiens;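 also: growth inhibition of EoL-1 cells, read out by a cell viability assay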
Description: SANGER: Inhibition of human EoL-1-cell cell growth in a cell viability assay.

[32] = tested on: MKN-1; type: functional, cell-based, Homo sapiens;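 also: growth inhibition of human MKN1 cells, read out by a cell viability measurement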
Description: SANGER: Inhibition of human MKN1 cell growth in a cell viability assay.

[33] = tested on: KLE; type: functional, cell-based, Homo sapiens;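 also: growth inhibition of human KLE cells, read out with a cell viability assay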
Description: SANGER: Inhibition of human KLE cell growth in a cell viability assay.

[34] = tested on: ASPC1; type: functional, cell-based, Homo sapiens;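 also: growth inhibition of AsPC-1 cells, read out with a cell viability assay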
Description: SANGER: Inhibition of human AsPC-1 cell growth in a cell viability assay.

[35] = tested on: T-24; type: functional, cell-based, Homo sapiens;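 also: growth inhibition of T-24 cells, read out with a cell viability assay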
Description: SANGER: Inhibition of human T-24 cell growth in a cell viability assay.

[36] = tested on: D283 Med; type: functional, cell-based, Homo sapiens
Description: SANGER: Inhibition of human D-283MED cell growth in a cell viability assay.

[37] = tested on: HT-29; type: functional, cell-based, Homo sapiens;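 also: growth inhibition of human HT-29 cells, read out by a cell viability assay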
Description: SANGER: Inhibition of human HT-29 cell growth in a cell viability assay.

[38] = tested on: NCI-H2405; type: functional, cell-based, Homo sapiens;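 also: growth inhibition of the human cell line, read out with a cell viability assay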
Description: SANGER: Inhibition of human NCI-H2405 cell growth in a cell viability assay.

[39] = tested on: HCC2218; type: functional, cell-based; details: Homo sapiens;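 also: cell viability assay read-out, with IC50 given as the concentration that inhibits growth of the cell line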
Description: SANGER: Inhibition of human HCC2218 cell growth in a cell viability assay.

[40] = tested on: BEN; type: functional, cell-based, Homo sapiens;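 also: growth inhibition of the BEN cell line, read out with a cell viability assay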
Description: SANGER: Inhibition of human BEN cell growth in a cell viability assay.

[41] = tested on: KP-N-YS; type: functional, cell-based; details: Homo sapiens;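 also: cell viability assay measuring inhibition of cell line growth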
Description: SANGER: Inhibition of human KP-N-YS cell growth in a cell viability assay.

[42] = tested on: HuP-T3; type: functional, cell-based, Homo sapiens;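 also: HuP-T3 cell growth inhibition, read out with a cell viability assay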
Description: SANGER: Inhibition of human HuP-T3 cell growth in a cell viability assay.

[43] = tested on: CHL-1; type: functional, cell-based, Homo sapiens;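 also: cell growth inhibition, read out with a cell viability assay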
Description: SANGER: Inhibition of human CHL-1 cell growth in a cell viability assay.

[44] = tested on: MPP-89; type: functional, cell-based, Homo sapiens;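 also: growth inhibition of human MPP-89 cells, read out with a cell viability assay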
Description: SANGER: Inhibition of human MPP-89 cell growth in a cell viability assay.

[45] = tested on: Calu-6; type: functional, cell-based, Homo sapiens;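 also: growth of human Calu-6 cells, read out by a cell viability assay, IC50 marking inhibition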
Description: SANGER: Inhibition of human Calu-6 cell growth in a cell viability assay.

[46] = tested on: G-402; type: functional, cell-based, Homo sapiens
Description: SANGER: Inhibition of human G-402 cell growth in a cell viability assay.

[47] = tested on: CAL-12T; type: functional, cell-based, Homo sapiens;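 also: growth inhibition of human CAL-12T cells, read out with a cell viability assay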
Description: SANGER: Inhibition of human CAL-12T cell growth in a cell viability assay.

[48] = tested on: 697; type: functional, cell-based; details: Homo sapiens
Description: SANGER: Inhibition of human 697 cell growth in a cell viability assay.

[49] = tested on: SK-MEL-2; type: functional, cell-based, Homo sapiens;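 also: growth inhibition of human SK-MEL-2 cells measured with a cell viability assay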
Description: SANGER: Inhibition of human SK-MEL-2 cell growth in a cell viability assay.

[50] = tested on: LS-1034; type: functional, cell-based, Homo sapiens
Description: SANGER: Inhibition of human LS-1034 cell growth in a cell viability assay.

[51] = tested on: NCI-H292; type: functional, cell-based, Homo sapiens;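 also: growth inhibition of NCI-H292 cells, read out with a cell viability assay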
Description: SANGER: Inhibition of human NCI-H292 cell growth in a cell viability assay.

[52] = tested on: MFH-ino; type: functional, cell-based; details: Homo sapiens;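 also: growth inhibition of human MFH-ino cells, read out by a cell viability assay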
Description: SANGER: Inhibition of human MFH-ino cell growth in a cell viability assay.

COc1cc(F)c(F)c(Nc2ccc(I)cc2F)c1NS(=O)(=O)C1(CC(O)CO)CC1 (stereo not drawn)
IC50 ([1]; Homo sapiens, EGI-1): 1.31 µM
IC50 ([2]; Homo sapiens): > 5 µM
IC50 ([3]; Homo sapiens, A-375): 0.12 µM
IC50 ([4]; Homo sapiens, SK-MES-1): 1.35 µM
IC50 ([5]; Homo sapiens): 2.37 µM
IC50 [6]: 0.318 µM
IC50 ([7]; Homo sapiens, MZ2-MEL): 0.319 µM
IC50 ([8]; Homo sapiens, NCI-H358): > 5 µM
IC50 ([9]; Homo sapiens, MHH-NB-11): 1.06 µM
IC50 [10]: 0.477 µM
IC50 ([11]; Homo sapiens, NCI-H1993): > 5 µM
IC50 ([12]; Homo sapiens, CAL-27): > 5 µM
IC50 ([13]; Homo sapiens, TE-8): 1.12 µM
IC50 ([14]; Homo sapiens, GOTO): > 5 µM
IC50 ([15]; Homo sapiens, TE-11): > 5 µM
IC50 ([16]; Homo sapiens, SW 962): 1.5 µM
IC50 [17]: > 5 µM
IC50 ([18]; Homo sapiens, TE-1): > 5 µM
IC50 ([19]; Homo sapiens, UMUC3): > 5 µM
IC50 ([20]; Homo sapiens, COLO-829): 1.73 µM
IC50 ([21]; Homo sapiens, Calu-3): 4.9 µM
IC50 ([22]; Homo sapiens, BFTC-905): 0.719 µM
IC50 ([23]; Homo sapiens, T98G): > 5 µM
IC50 [24]: > 5 µM
IC50 ([25]; Homo sapiens, D-247MG): > 5 µM
IC50 ([26]; Homo sapiens, AGS): 0.24 µM
IC50 ([27]; Homo sapiens, NCI-H1693): > 5 µM
IC50 ([28]; Homo sapiens, A704): 4.7 µM
IC50 ([29]; Homo sapiens, BB65-RCC): 3.66 µM
IC50 ([30]; Homo sapiens, SH-4): 0.0856 µM
IC50 [31]: 0.399 µM
IC50 ([32]; Homo sapiens, MKN-1): > 5 µM
IC50 ([33]; Homo sapiens, KLE): > 5 µM
IC50 ([34]; Homo sapiens, ASPC1): 1.07 µM
IC50 ([35]; Homo sapiens, T-24): > 5 µM
IC50 ([36]; Homo sapiens, D283 Med): > 5 µM
IC50 ([37]; Homo sapiens, HT-29): 0.182 µM
IC50 ([38]; Homo sapiens, NCI-H2405): 1.87 µM
IC50 [39]: > 5 µM
IC50 ([40]; Homo sapiens, BEN): > 5 µM
IC50 [41]: > 5 µM
IC50 ([42]; Homo sapiens, HuP-T3): > 5 µM
IC50 ([43]; Homo sapiens, CHL-1): 1.18 µM
IC50 ([44]; Homo sapiens, MPP-89): > 5 µM
IC50 ([45]; Homo sapiens, Calu-6): > 5 µM
IC50 ([46]; Homo sapiens, G-402): > 5 µM
IC50 ([47]; Homo sapiens, CAL-12T): 1.07 µM
IC50 [48]: > 5 µM
IC50 ([49]; Homo sapiens, SK-MEL-2): 0.101 µM
IC50 ([50]; Homo sapiens, LS-1034): 1.62 µM
IC50 ([51]; Homo sapiens, NCI-H292): 0.64 µM

Cc1cc([C@@H](C)Nc2ccccc2C(=O)O)c2nc(N3CCOCC3)cc(=O)n2c1 [AZD-6482]
IC50 ([1]; egi-1): > 5.12 µM
IC50 [2]: > 5.12 µM
IC50 ([2]; Homo sapiens): > 5.12 µM
IC50 ([3]; a-375): > 5.12 µM
IC50 ([4]; sk-mes-1): 0.79 µM and > 5.12 µM
IC50 [5]: 1.99 µM
IC50 ([5]; Homo sapiens): 1.31 µM
IC50 [6]: > 5.12 µM
IC50 ([7]; mz2-mel): > 5.12 µM
IC50 ([8]; nci-h358): > 5.12 µM
IC50 ([9]; mhh-nb-11): > 5.12 µM
IC50 [10]: > 5.12 µM
IC50 ([11]; nci-h1993): > 5.12 µM
IC50 ([12]; Homo sapiens, CAL-27): > 5.12 µM
IC50 ([12]; cal-27): > 5.12 µM
IC50 ([13]; te-8): > 5.12 µM
IC50 ([14]; Homo sapiens, GOTO): > 5.12 µM
IC50 ([14]; goto): > 5.12 µM
IC50 ([15]; te-11): > 5.12 µM
IC50 ([16]; sw 962): > 5.12 µM and 1.5 µM
IC50 ([18]; Homo sapiens, TE-1): > 5.12 µM
IC50 ([18]; te-1): > 5.12 µM
IC50 ([19]; umuc3): > 5.12 µM
IC50 [52]: > 5.12 µM
IC50 ([20]; colo-829): > 5.12 µM
IC50 ([21]; calu-3): 3.44 µM and > 5.12 µM
IC50 ([22]; bftc-905): > 5.12 µM and 4.15 µM
IC50 ([23]; Homo sapiens, T98G): > 5.12 µM
IC50 ([23]; t98g): > 5.12 µM
IC50 [24]: 0.962 µM
IC50 ([25]; d-247mg): > 5.12 µM
IC50 ([26]; Homo sapiens, AGS): > 5.12 µM
IC50 ([26]; ags): > 5.12 µM
IC50 ([27]; nci-h1693): > 5.12 µM
IC50 ([28]; a704): > 5.12 µM and 3.31 µM
IC50 ([29]; Homo sapiens, BB65-RCC): > 5.12 µM
IC50 ([29]; bb65-rcc): > 5.12 µM
IC50 ([30]; sh-4): > 5.12 µM
IC50 [31]: > 5.12 µM
IC50 ([32]; mkn-1): > 5.12 µM
IC50 ([33]; kle): > 5.12 µM
IC50 ([34]; aspc1): > 5.12 µM
IC50 ([35]; t-24): > 5.12 µM
IC50 ([36]; d283 med): > 5.12 µM
IC50 ([37]; ht-29): > 5.12 µM
IC50 ([38]; nci-h2405): > 5.12 µM
IC50 [39]: > 5.12 µM
IC50 ([40]; ben): > 5.12 µM
IC50 [41]: > 5.12 µM
IC50 ([42]; hup-t3): > 5.12 µM
IC50 ([43]; Homo sapiens, CHL-1): > 5.12 µM
IC50 ([43]; chl-1): 4.72 µM
IC50 ([44]; mpp-89): > 5.12 µM
IC50 ([45]; calu-6): > 5.12 µM
IC50 ([46]; g-402): 3.24 µM and > 5.12 µM
IC50 ([47]; cal-12t): > 5.12 µM
IC50 [48]: 4.6 µM
IC50 ([49]; Homo sapiens, SK-MEL-2): > 5.12 µM
IC50 ([49]; sk-mel-2): > 5.12 µM
IC50 ([50]; Homo sapiens, LS-1034): > 5.12 µM
IC50 ([50]; ls-1034): > 5.12 µM
IC50 ([51]; nci-h292): 3.65 µM and 1.56 µM
